Data: PubChem BioAssay (NCI)
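Growth conditions: 96-well plates. Treatment: test compound, 48 hours, 5 concentrations. Analysis: linear interpolation between bracketing concentrations; unreached endpoints set to highest concentration. GI50 marks 50% less growth. Definition used: TGI = concentration required for complete inhibition of growth.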

Assays:
Assay in all cases: NCI anticancer screen, dose series, 48 h
RPMI-8226 leukemia = tested on: RPMI-8226 leukemia
MDA-MB-435 = tested on: MDA-MB-435
MOLT-4 leukemia = tested on: MOLT-4 leukemia
SK-MEL-28 melanoma = tested on: SK-MEL-28 melanoma
HOP-62 NSCLC = tested on: HOP-62 NSCLC
SK-MEL-5 melanoma = tested on: SK-MEL-5 melanoma
U251 CNS = tested on: U251 CNS
M14 melanoma = tested on: M14 melanoma
CAKI-1 renal = tested on: CAKI-1 renal
SK-OV-3 ovarian = tested on: SK-OV-3 ovarian
TK-10 renal = tested on: TK-10 renal
A498 renal = tested on: A498 renal
OVCAR-8 ovarian = tested on: OVCAR-8 ovarian
BT-549 breast = tested on: BT-549 breast
PC-3 prostate = tested on: PC-3 prostate
HL-60(TB) leukemia = tested on: HL-60(TB) leukemia
SF-268 CNS = tested on: SF-268 CNS
HCC-2998 colon = tested on: HCC-2998 colon
CCRF-CEM leukemia = tested on: CCRF-CEM leukemia
NCI-H23 lung = tested on: NCI-H23 lung
COLO 205 colon = tested on: COLO 205 colon
NCI-H522 lung = tested on: NCI-H522 lung
SF-295 CNS = tested on: SF-295 CNS
SN12C renal = tested on: SN12C renal
KM12 colon = tested on: KM12 colon
K-562 leukemia = tested on: K-562 leukemia
OVCAR-4 ovarian = tested on: OVCAR-4 ovarian
SNB-19 CNS = tested on: SNB-19 CNS
HT29 colon = tested on: HT29 colon
MALME-3M melanoma = tested on: MALME-3M melanoma
UO-31 renal = tested on: UO-31 renal
NCI-H460 lung = tested on: NCI-H460 lung
SW-620 colon = tested on: SW-620 colon
EKVX NSCLC = tested on: EKVX NSCLC
786-0 renal = tested on: 786-0 renal
LOX IMVI melanoma = tested on: LOX IMVI melanoma
IGROV1 ovarian = tested on: IGROV1 ovarian
SF-539 CNS = tested on: SF-539 CNS
RXF 393 renal = tested on: RXF 393 renal
UACC-62 melanoma = tested on: UACC-62 melanoma
MCF7 breast = tested on: MCF7 breast
HS 578T breast = tested on: HS 578T breast
T-47D breast = tested on: T-47D breast
OVCAR-5 ovarian = tested on: OVCAR-5 ovarian
A549 NSCLC = tested on: A549 NSCLC
ACHN renal = tested on: ACHN renal
HOP-92 NSCLC = tested on: HOP-92 NSCLC
HCT-15 colon = tested on: HCT-15 colon
NCI-H226 lung = tested on: NCI-H226 lung
SR leukemia = tested on: SR leukemia
UACC-257 melanoma = tested on: UACC-257 melanoma
SNB-75 CNS = tested on: SNB-75 CNS
HCT-116 colon = tested on: HCT-116 colon
OVCAR-3 ovarian = tested on: OVCAR-3 ovarian
SK-MEL-2 melanoma = tested on: SK-MEL-2 melanoma
NCI/ADR-RES ovarian = tested on: NCI/ADR-RES ovarian
DU-145 prostate = tested on: DU-145 prostate
MDA-MB-231 breast = tested on: MDA-MB-231 breast

`C=C(C)C(=O)O[C@H]1C[C@@]2(C)OC(=CC2=O)/C(CO)=C\[C@H]2OC(=O)C(=C)[C@H]12` was tested, and the GI50 (RPMI-8226 leukemia) was 80.9 nM, the TGI (RPMI-8226 leukemia) was 229 nM and the GI50 (MDA-MB-435) was 66.4 nM. For the same molecule, the TGI (MDA-MB-435) was 146 nM, the GI50 (MOLT-4 leukemia) was 80.2 nM and the TGI (MOLT-4 leukemia) was 265 nM. The GI50 (SK-MEL-28 melanoma) was 66.1 nM, the TGI (SK-MEL-28 melanoma) was 148 nM and the GI50 (HOP-62 NSCLC) was 654 nM. The TGI (HOP-62 NSCLC) was 2350 nM, the GI50 (SK-MEL-5 melanoma) was 318 nM and the TGI (SK-MEL-5 melanoma) was 1230 nM. For the same molecule, the GI50 (U251 CNS) was 159 nM, the TGI (U251 CNS) was 579 nM and the GI50 (M14 melanoma) was 72.3 nM. It also gave a TGI (M14 melanoma) of 178 nM, a GI50 (CAKI-1 renal) of 87.9 nM and a TGI (CAKI-1 renal) of 301 nM. The GI50 (SK-OV-3 ovarian) was 1190 nM, the TGI (SK-OV-3 ovarian) was greater than 3330 nM and the GI50 (TK-10 renal) was 57.3 nM. For the same molecule, the TGI (TK-10 renal) was 127 nM, the GI50 (A498 renal) was 565 nM and the TGI (A498 renal) was 1290 nM. For the same molecule, the GI50 (OVCAR-8 ovarian) was 115 nM, the TGI (OVCAR-8 ovarian) was greater than 1540 nM and the GI50 (BT-549 breast) was 92.8 nM. It also gave a TGI (BT-549 breast) of 292 nM, a GI50 (PC-3 prostate) of 190 nM and a TGI (PC-3 prostate) of 985 nM. For the same molecule, the GI50 (HL-60(TB) leukemia) was 67.7 nM, the TGI (HL-60(TB) leukemia) was 189 nM and the GI50 (SF-268 CNS) was 168 nM. The TGI (SF-268 CNS) was 836 nM, the GI50 (HCC-2998 colon) was 216 nM and the TGI (HCC-2998 colon) was 535 nM. It also gave a GI50 (CCRF-CEM leukemia) of 27.4 nM, a TGI (CCRF-CEM leukemia) of 259 nM and a GI50 (NCI-H23 lung) of 153 nM. For the same molecule, the TGI (NCI-H23 lung) was 421 nM, the GI50 (COLO 205 colon) was 32.7 nM and the TGI (COLO 205 colon) was 95.4 nM. It also gave a GI50 (NCI-H522 lung) of 7.73 nM, a TGI (NCI-H522 lung) of 24.5 nM and a GI50 (SF-295 CNS) of 575 nM. The TGI (SF-295 CNS) was 1500 nM, the GI50 (SN12C renal) was 114 nM and the TGI (SN12C renal) was greater than 1230 nM. The GI50 (KM12 colon) was 509 nM, the TGI (KM12 colon) was 1120 nM and the GI50 (K-562 leukemia) was 94.6 nM. For the same molecule, the TGI (K-562 leukemia) was 621 nM, the GI50 (OVCAR-4 ovarian) was 151 nM and the TGI (OVCAR-4 ovarian) was 652 nM. The GI50 (SNB-19 CNS) was 937 nM, the TGI (SNB-19 CNS) was greater than 3330 nM and the GI50 (HT29 colon) was 112 nM. The TGI (HT29 colon) was 356 nM, the GI50 (MALME-3M melanoma) was 70.8 nM and the TGI (MALME-3M melanoma) was 203 nM. It also gave a GI50 (UO-31 renal) of 68.5 nM, a TGI (UO-31 renal) of 177 nM and a GI50 (NCI-H460 lung) of 424 nM. It also gave a TGI (NCI-H460 lung) of 2070 nM, a GI50 (SW-620 colon) of 52.1 nM and a TGI (SW-620 colon) of 147 nM. For the same molecule, the GI50 (EKVX NSCLC) was 137 nM, the TGI (EKVX NSCLC) was 1070 nM and the GI50 (786-0 renal) was 65.2 nM. It also gave a TGI (786-0 renal) of 144 nM, a GI50 (LOX IMVI melanoma) of 53.3 nM and a TGI (LOX IMVI melanoma) of 106 nM. For the same molecule, the GI50 (IGROV1 ovarian) was 145 nM, the TGI (IGROV1 ovarian) was 562 nM and the GI50 (SF-539 CNS) was 88 nM. The TGI (SF-539 CNS) was 287 nM, the GI50 (RXF 393 renal) was 57.6 nM and the TGI (RXF 393 renal) was 120 nM. The GI50 (UACC-62 melanoma) was 56.9 nM, the TGI (UACC-62 melanoma) was 123 nM and the GI50 (MCF7 breast) was 86.1 nM. For the same molecule, the TGI (MCF7 breast) was 418 nM, the GI50 (HS 578T breast) was 294 nM and the TGI (HS 578T breast) was greater than 3330 nM. The GI50 (T-47D breast) was 72.9 nM, the TGI (T-47D breast) was 588 nM and the GI50 (OVCAR-5 ovarian) was 84.8 nM. It also gave a TGI (OVCAR-5 ovarian) of 226 nM, a GI50 (A549 NSCLC) of 840 nM and a TGI (A549 NSCLC) greater than 3330 nM. For the same molecule, the GI50 (ACHN renal) was 61.2 nM, the TGI (ACHN renal) was 228 nM and the GI50 (HOP-92 NSCLC) was 72.6 nM. The TGI (HOP-92 NSCLC) was 173 nM, the GI50 (HCT-15 colon) was 70.3 nM and the TGI (HCT-15 colon) was 223 nM. The GI50 (NCI-H226 lung) was 68.5 nM, the TGI (NCI-H226 lung) was 172 nM and the GI50 (SR leukemia) was 43.7 nM. For the same molecule, the TGI (SR leukemia) was 249 nM, the GI50 (UACC-257 melanoma) was 74 nM and the TGI (UACC-257 melanoma) was 213 nM. For the same molecule, the GI50 (SNB-75 CNS) was 132 nM, the TGI (SNB-75 CNS) was 1700 nM and the GI50 (HCT-116 colon) was 60.4 nM. The TGI (HCT-116 colon) was 163 nM, the GI50 (OVCAR-3 ovarian) was 55.2 nM and the TGI (OVCAR-3 ovarian) was 149 nM. The GI50 (SK-MEL-2 melanoma) was 120 nM, the TGI (SK-MEL-2 melanoma) was 490 nM and the GI50 (NCI/ADR-RES ovarian) was 224 nM. For the same molecule, the TGI (NCI/ADR-RES ovarian) was greater than 3330 nM, the GI50 (DU-145 prostate) was 120 nM and the TGI (DU-145 prostate) was 673 nM. The GI50 (MDA-MB-231 breast) was 79.4 nM and the TGI (MDA-MB-231 breast) was 206 nM.
